Measurements reported in ChEMBL document CHEMBL1201862, “PubChem BioAssay data set” (2004).
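Interpolation was linear, between the two tested concentrations surrounding the appropriate level; five concentrations were tested over 48 hours in 96-well plates. GI50 marks 50% less growth.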 Activity calls are given as the source filed them. Cut-off read from the data, not from the text of the source: active = GI50 up to about 1.1 µM and inactive = higher.

Tests used:
Test in all cases: inhibition of tumour cell growth, NCI panel, 48 h
NCI-H226 = tested on: NCI-H226
NCI-H522 = tested on: NCI-H522
HL-60 = tested on: HL-60
A549 = tested on: A549
EKVX = tested on: EKVX
IGROV-1 = tested on: IGROV-1
COLO 205 = tested on: COLO 205
SK-MEL-5 = tested on: SK-MEL-5
TK-10 = tested on: TK-10
UO-31 = tested on: UO-31
A498 = tested on: A498
CAKI-1 = tested on: CAKI-1
KM-20L2 = tested on: KM-20L2
K562 = tested on: K562
UACC-62 = tested on: UACC-62
NCI-H23 = tested on: NCI-H23
SNB-75 = tested on: SNB-75
OVCAR-3 = tested on: OVCAR-3
Hs-578T = tested on: Hs-578T
MDA-N = tested on: MDA-N

Measured: GI50

N#Cc1cccc(C2SCc3nc4ccccc4n32)c1 (stereo unspecified)
inactive: NCI-H226 28.9 µM | NCI-H522 69.3 µM | HL-60 62.8 µM | A549 92.7 µM | EKVX 67.6 µM | IGROV-1 32.9 µM | COLO 205 > 100 µM | SK-MEL-5 19.8 µM | TK-10 > 100 µM | UO-31 61.1 µM | A498 95.9 µM | CAKI-1 32.4 µM | KM-20L2 > 100 µM | K562 54.6 µM | UACC-62 37.2 µM | NCI-H23 74.8 µM

CCc1cccc(C)c1NC(=O)C1=C(C)NC(C)=C(C(=O)Nc2c(C)cccc2CC)C1c1ccc2c(c1)OCO2
inactive: NCI-H226 19.8 µM | SNB-75 9.84 µM | NCI-H522 15.9 µM | HL-60 21.4 µM | A549 16.9 µM | EKVX 20.5 µM | IGROV-1 24.7 µM | COLO 205 18.5 µM | SK-MEL-5 16.2 µM | TK-10 26.6 µM | UO-31 15.3 µM | A498 11.3 µM | OVCAR-3 17.5 µM | CAKI-1 18.8 µM | KM-20L2 23.9 µM | K562 27.2 µM | NCI-H23 16.5 µM

CCOc1ccccc1NC(=O)CC1C(=O)Nc2ccccc2[S+]1[O-] (stereo unspecified)
inactive: NCI-H226 60.5 µM | SNB-75 > 100 µM | NCI-H522 45.4 µM | HL-60 26.8 µM | A549 > 100 µM | EKVX 43 µM | IGROV-1 51.5 µM | SK-MEL-5 54.8 µM | TK-10 > 100 µM | UO-31 85.3 µM | A498 > 100 µM | OVCAR-3 39.5 µM | CAKI-1 > 100 µM | KM-20L2 > 100 µM | K562 49.7 µM | UACC-62 26.3 µM | NCI-H23 > 100 µM

CCCCNC1CCCCC[C@H]1O (stereo partly specified)
inactive: NCI-H226 > 100 µM | SNB-75 > 100 µM | NCI-H522 > 100 µM | HL-60 > 100 µM | A549 > 100 µM | EKVX > 100 µM | IGROV-1 > 100 µM | COLO 205 > 100 µM | SK-MEL-5 > 100 µM | TK-10 > 100 µM | UO-31 > 100 µM | OVCAR-3 > 100 µM | CAKI-1 > 100 µM | KM-20L2 > 100 µM | K562 > 100 µM | UACC-62 > 100 µM | NCI-H23 > 100 µM

C/C(=C\C(C)COCc1ccccc1)[C@H](COCc1ccccc1)OCc1ccccc1 (stereo partly specified)
inactive: NCI-H226 > 100 µM | SNB-75 80.2 µM | NCI-H522 88.5 µM | HL-60 > 10 µM | A549 > 100 µM | EKVX > 100 µM | IGROV-1 > 100 µM | COLO 205 > 100 µM | SK-MEL-5 37.6 µM | TK-10 > 100 µM | UO-31 83.9 µM | A498 > 100 µM | OVCAR-3 > 100 µM | KM-20L2 > 100 µM | K562 73.1 µM | UACC-62 > 100 µM | NCI-H23 48 µM

O=c1c(C(c2cccnc2)c2c(O)oc3cc(O)ccc3c2=O)c(O)oc2cc(O)ccc12
inactive: Hs-578T > 100 µM | NCI-H226 > 100 µM | SNB-75 > 100 µM | NCI-H522 > 100 µM | HL-60 > 100 µM | A549 > 100 µM | MDA-N > 100 µM | EKVX > 100 µM | IGROV-1 > 100 µM | COLO 205 > 100 µM | SK-MEL-5 > 100 µM | TK-10 > 100 µM | UO-31 > 100 µM | A498 > 100 µM | OVCAR-3 > 100 µM | CAKI-1 > 100 µM | K562 > 100 µM | UACC-62 > 100 µM | NCI-H23 > 100 µM

CCC1C(=O)OCc2c1cc1n(c2=O)Cc2ccccc2-1 (stereo unspecified)
inactive: NCI-H226 > 100 µM | SNB-75 > 100 µM | HL-60 > 100 µM | A549 > 100 µM | EKVX > 100 µM | IGROV-1 > 100 µM | SK-MEL-5 > 100 µM | TK-10 > 100 µM | UO-31 > 100 µM | A498 > 100 µM | OVCAR-3 > 100 µM | CAKI-1 34.2 µM | KM-20L2 > 100 µM | K562 > 100 µM | UACC-62 > 100 µM | NCI-H23 > 100 µM

CCCCCCCCCCCC[N+]12CC[N+](C)(CC1)CC2
inactive: NCI-H226 18.3 µM | SNB-75 13 µM | NCI-H522 19.4 µM | HL-60 16.4 µM | A549 54.7 µM | EKVX > 100 µM | IGROV-1 1.98 µM | COLO 205 5.28 µM | SK-MEL-5 > 100 µM | TK-10 1.89 µM | UO-31 > 100 µM | OVCAR-3 64.1 µM | CAKI-1 11.8 µM | KM-20L2 14.9 µM | K562 23.8 µM | UACC-62 22.6 µM | NCI-H23 20.9 µM
